Measurements published in the kinase profiling compilation of Christmann-Franck et al. (2016).
One block for each compound: values may come before it.

Columns and labels:
HIPK1 (human) = HIPK1 (human) (UniProt Q86Z02); experiment: KINOMEscan competition binding; conditions: compound 10.0 µM
PIM1 (human) [1] = target: PIM1 (human) (UniProt P11309); experiment: KINOMEscan competition binding; conditions: compound 10.0 µM
GAK (human) = GAK (human) (UniProt O14976); experiment: KINOMEscan competition binding; conditions: compound 10.0 µM
CSNK2A1 (human) = CSNK2A1 (human) (UniProt P68400); experiment: KINOMEscan competition binding; conditions: compound 10.0 µM
[2] = target: TYK2 JH2 pseudokinase (human) (UniProt P29597); experiment: KINOMEscan competition binding; conditions: compound 10.0 µM
CSNK2A2 (human) = CSNK2A2 (human) (UniProt P19784); experiment: KINOMEscan competition binding; conditions: compound 10.0 µM
DAPK3 (human) = DAPK3 (human) (UniProt O43293); experiment: KINOMEscan competition binding; conditions: compound 10.0 µM
[3] = test system: EGFR (human), P00533 [A750P; 747-749 del]; experiment: KINOMEscan competition binding; conditions: compound 10.0 µM
PIK3C2B (human) = PIK3C2B (human) (UniProt O00750); experiment: KINOMEscan competition binding; conditions: compound 10.0 µM
STK17A (human) = STK17A (human) (UniProt Q9UEE5); experiment: KINOMEscan competition binding; conditions: compound 10.0 µM
PIK3CD (human) = PIK3CD (human) (UniProt O00329); experiment: KINOMEscan competition binding; conditions: compound 10.0 µM
PIK3CG (human) = PIK3CG (human) (UniProt P48736); experiment: KINOMEscan competition binding; conditions: compound 10.0 µM
[4] = test system: EGFR (human), P00533 [L861Q]; experiment: KINOMEscan competition binding; conditions: compound 10.0 µM
BMPR2 (human) = BMPR2 (human) (UniProt Q13873); experiment: KINOMEscan competition binding; conditions: compound 10.0 µM
[5] = test system: EGFR (human), P00533 [G719C; 746-750 del]; experiment: KINOMEscan competition binding; conditions: compound 10.0 µM
DAPK1 (human) = DAPK1 (human) (UniProt P53355); experiment: KINOMEscan competition binding; conditions: compound 10.0 µM
CIT (human) = CIT (human) (UniProt O14578); experiment: KINOMEscan competition binding; conditions: compound 10.0 µM
STK17B (human) = STK17B (human) (UniProt O94768); experiment: KINOMEscan competition binding; conditions: compound 10.0 µM
[6] = test system: EGFR (human), P00533 [G719S]; experiment: KINOMEscan competition binding; conditions: compound 10.0 µM
TEK (human) = TEK (human) (UniProt Q02763); experiment: KINOMEscan competition binding; conditions: compound 10.0 µM
DAPK2 (human) = DAPK2 (human) (UniProt Q9UIK4); experiment: KINOMEscan competition binding; conditions: compound 10.0 µM
RPS6KA4 KD2 (human) = RPS6KA4 KD2 (human) (UniProt O75676); experiment: KINOMEscan competition binding; conditions: compound 10.0 µM
MYLK4 (human) = MYLK4 (human) (UniProt Q86YV6); experiment: KINOMEscan competition binding; conditions: compound 10.0 µM
AAK1 (human) = AAK1 (human) (UniProt Q2M2I8); experiment: KINOMEscan competition binding; conditions: compound 10.0 µM
EGFR (human) = EGFR (human) (UniProt P00533); experiment: KINOMEscan competition binding; conditions: compound 10.0 µM
RIPK2 (human) = RIPK2 (human) (UniProt O43353); experiment: KINOMEscan competition binding; conditions: compound 10.0 µM
[7] = test system: EGFR (human), P00533 [752-759 del]; experiment: KINOMEscan competition binding; conditions: compound 10.0 µM
[8] = test system: EGFR (human), P00533 [L858R]; experiment: KINOMEscan competition binding; conditions: compound 10.0 µM
[9] = test system: EGFR (human), P00533 [747-751 del / S ins]; experiment: KINOMEscan competition binding; conditions: compound 10.0 µM
CLK2 (human) = CLK2 (human) (UniProt P49760); experiment: KINOMEscan competition binding; conditions: compound 10.0 µM
TAOK1 (human) = TAOK1 (human) (UniProt Q7L7X3); experiment: KINOMEscan competition binding; conditions: compound 10.0 µM
[10] = test system: EGFR (human), P00533 [P753S; 747-752 del]; experiment: KINOMEscan competition binding; conditions: compound 10.0 µM
MYLK3 (human) = MYLK3 (human) (UniProt Q32MK0); experiment: KINOMEscan competition binding; conditions: compound 10.0 µM
PIM3 (human) = PIM3 (human) (UniProt Q86V86); experiment: KINOMEscan competition binding; conditions: compound 10.0 µM
TIE1 (human) = TIE1 (human) (UniProt P35590); experiment: KINOMEscan competition binding; conditions: compound 10.0 µM
MAPK15 (human) = MAPK15 (human) (UniProt Q8TD08); experiment: KINOMEscan competition binding; conditions: compound 10.0 µM
RPS6KA6 KD2 (human) = RPS6KA6 KD2 (human) (UniProt Q9UK32); experiment: KINOMEscan competition binding; conditions: compound 10.0 µM
PIM2 (human) [11] = target: PIM2 (human) (UniProt Q9P1W9); experiment: KINOMEscan competition binding; conditions: compound 10.0 µM
ACVR2B (human) = ACVR2B (human) (UniProt Q13705); experiment: KINOMEscan competition binding; conditions: compound 10.0 µM
PIM1 (human) [12] = target: PIM1 (human) (UniProt P11309); experiment: SelectScreen, TR FRET
PIM2 (human) [13] = target: PIM2 (human) (UniProt Q9P1W9); experiment: SelectScreen, TR FRET
ALK (human) = ALK (human) (UniProt Q9UM73); experiment: KINOMEscan competition binding; conditions: compound 10.0 µM
PRKD1 (human) = PRKD1 (human) (UniProt Q15139); experiment: KINOMEscan competition binding; conditions: compound 10.0 µM
CSNK1E (human) = CSNK1E (human) (UniProt P49674); experiment: KINOMEscan competition binding; conditions: compound 10.0 µM
MYLK (human) = MYLK (human) (UniProt Q15746); experiment: KINOMEscan competition binding; conditions: compound 10.0 µM
AKT3 (human) = AKT3 (human) (UniProt Q9Y243); experiment: KINOMEscan competition binding; conditions: compound 10.0 µM
TTK (human) = TTK (human) (UniProt P33981); experiment: KINOMEscan competition binding; conditions: compound 10.0 µM
FER (human) = FER (human) (UniProt P16591); experiment: KINOMEscan competition binding; conditions: compound 10.0 µM
RPS6KA2 KD2 (human) = RPS6KA2 KD2 (human) (UniProt Q15349); experiment: KINOMEscan competition binding; conditions: compound 10.0 µM
ULK2 (human) = ULK2 (human) (UniProt Q8IYT8); experiment: KINOMEscan competition binding; conditions: compound 10.0 µM
PLK1 (human) = PLK1 (human) (UniProt P53350); experiment: KINOMEscan competition binding; conditions: compound 10.0 µM
PLK3 (human) = PLK3 (human) (UniProt Q9H4B4); experiment: KINOMEscan competition binding; conditions: compound 10.0 µM
ROS1 (human) = ROS1 (human) (UniProt P08922); experiment: KINOMEscan competition binding; conditions: compound 10.0 µM
PTK2 (human) = PTK2 (human) (UniProt Q05397); experiment: KINOMEscan competition binding; conditions: compound 10.0 µM
INSR (human) = INSR (human) (UniProt P06213); experiment: KINOMEscan competition binding; conditions: compound 10.0 µM
PLK4 (human) = PLK4 (human) (UniProt O00444); experiment: KINOMEscan competition binding; conditions: compound 10.0 µM
DCLK2 (human) = DCLK2 (human) (UniProt Q8N568); experiment: KINOMEscan competition binding; conditions: compound 10.0 µM
PTK2B (human) = PTK2B (human) (UniProt Q14289); experiment: KINOMEscan competition binding; conditions: compound 10.0 µM
STK4 (human) = STK4 (human) (UniProt Q13043); experiment: KINOMEscan competition binding; conditions: compound 10.0 µM
STK33 (human) = STK33 (human) (UniProt Q9BYT3); experiment: KINOMEscan competition binding; conditions: compound 10.0 µM
DMPK (human) = DMPK (human) (UniProt Q09013); experiment: KINOMEscan competition binding; conditions: compound 10.0 µM
INSRR (human) = INSRR (human) (UniProt P14616); experiment: KINOMEscan competition binding; conditions: compound 10.0 µM
TNK1 (human) = TNK1 (human) (UniProt Q13470); experiment: KINOMEscan competition binding; conditions: compound 10.0 µM
DCLK1 (human) = DCLK1 (human) (UniProt O15075); experiment: KINOMEscan competition binding; conditions: compound 10.0 µM
RPS6KA1 KD2 (human) = RPS6KA1 KD2 (human) (UniProt Q15418); experiment: KINOMEscan competition binding; conditions: compound 10.0 µM

Chain of RPS6KA6 KD2 (human) (Q9UK32 whole entry, looked up): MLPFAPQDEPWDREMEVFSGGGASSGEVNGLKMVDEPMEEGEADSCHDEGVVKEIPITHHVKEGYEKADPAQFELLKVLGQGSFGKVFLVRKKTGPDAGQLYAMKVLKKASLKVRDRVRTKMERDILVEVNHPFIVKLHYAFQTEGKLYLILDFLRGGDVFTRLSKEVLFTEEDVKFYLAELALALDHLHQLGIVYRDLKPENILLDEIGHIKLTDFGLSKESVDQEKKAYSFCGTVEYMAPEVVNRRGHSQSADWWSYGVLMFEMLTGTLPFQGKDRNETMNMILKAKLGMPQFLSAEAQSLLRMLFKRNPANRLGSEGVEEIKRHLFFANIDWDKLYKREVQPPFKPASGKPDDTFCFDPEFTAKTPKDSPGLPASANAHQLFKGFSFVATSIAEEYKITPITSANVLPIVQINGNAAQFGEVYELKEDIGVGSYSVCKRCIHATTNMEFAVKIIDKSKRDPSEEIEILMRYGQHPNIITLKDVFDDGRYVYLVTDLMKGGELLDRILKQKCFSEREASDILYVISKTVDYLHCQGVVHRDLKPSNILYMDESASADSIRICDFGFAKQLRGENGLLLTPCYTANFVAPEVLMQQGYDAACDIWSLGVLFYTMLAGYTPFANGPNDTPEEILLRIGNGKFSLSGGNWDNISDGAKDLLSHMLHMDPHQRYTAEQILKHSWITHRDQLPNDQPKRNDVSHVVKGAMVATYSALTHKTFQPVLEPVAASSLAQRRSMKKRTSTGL
Chain of DAPK2 (human) (Q9UIK4 whole entry, looked up): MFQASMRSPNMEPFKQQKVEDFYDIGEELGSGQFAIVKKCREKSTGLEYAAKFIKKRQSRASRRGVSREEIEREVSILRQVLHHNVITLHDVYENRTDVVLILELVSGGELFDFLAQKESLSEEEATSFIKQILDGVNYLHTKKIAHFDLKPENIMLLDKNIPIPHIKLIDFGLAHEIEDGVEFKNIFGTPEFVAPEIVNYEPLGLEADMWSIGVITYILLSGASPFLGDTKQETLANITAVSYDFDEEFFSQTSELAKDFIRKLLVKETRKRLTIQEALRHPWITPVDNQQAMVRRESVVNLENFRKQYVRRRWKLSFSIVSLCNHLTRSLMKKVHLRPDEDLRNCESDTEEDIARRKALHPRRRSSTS
Chain of PIM1 (human) (P11309 whole entry, looked up): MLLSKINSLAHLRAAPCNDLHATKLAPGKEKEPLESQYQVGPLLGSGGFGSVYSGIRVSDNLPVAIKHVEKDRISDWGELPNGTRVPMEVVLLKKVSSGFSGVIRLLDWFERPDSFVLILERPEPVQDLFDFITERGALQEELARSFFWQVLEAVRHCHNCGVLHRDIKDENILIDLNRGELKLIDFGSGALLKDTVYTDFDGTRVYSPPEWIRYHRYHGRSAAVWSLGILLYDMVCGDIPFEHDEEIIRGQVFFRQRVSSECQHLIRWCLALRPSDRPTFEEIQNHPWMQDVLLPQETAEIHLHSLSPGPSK
Chain of DAPK3 (human) (O43293 whole entry, looked up): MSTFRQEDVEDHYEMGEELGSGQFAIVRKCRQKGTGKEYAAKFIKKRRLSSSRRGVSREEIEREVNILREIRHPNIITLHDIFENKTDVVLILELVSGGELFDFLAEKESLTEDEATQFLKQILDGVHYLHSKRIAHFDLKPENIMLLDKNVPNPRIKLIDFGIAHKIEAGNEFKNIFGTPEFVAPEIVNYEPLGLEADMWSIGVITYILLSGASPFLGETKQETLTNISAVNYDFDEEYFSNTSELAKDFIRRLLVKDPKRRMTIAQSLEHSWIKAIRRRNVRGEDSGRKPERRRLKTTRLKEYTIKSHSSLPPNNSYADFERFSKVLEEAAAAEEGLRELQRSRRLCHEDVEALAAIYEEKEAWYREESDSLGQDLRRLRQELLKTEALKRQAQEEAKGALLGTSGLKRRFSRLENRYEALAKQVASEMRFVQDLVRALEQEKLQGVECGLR
Chain of PIM2 (human) (Q9P1W9 whole entry, looked up): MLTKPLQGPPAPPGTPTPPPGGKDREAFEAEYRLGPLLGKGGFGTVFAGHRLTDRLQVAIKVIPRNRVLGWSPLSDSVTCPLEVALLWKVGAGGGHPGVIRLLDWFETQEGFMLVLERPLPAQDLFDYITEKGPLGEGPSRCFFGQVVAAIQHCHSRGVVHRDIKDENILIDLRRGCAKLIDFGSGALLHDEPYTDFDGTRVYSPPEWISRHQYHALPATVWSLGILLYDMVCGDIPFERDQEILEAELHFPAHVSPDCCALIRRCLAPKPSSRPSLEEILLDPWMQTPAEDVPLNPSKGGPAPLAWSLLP
Chain of GAK (human) (O14976 whole entry, looked up): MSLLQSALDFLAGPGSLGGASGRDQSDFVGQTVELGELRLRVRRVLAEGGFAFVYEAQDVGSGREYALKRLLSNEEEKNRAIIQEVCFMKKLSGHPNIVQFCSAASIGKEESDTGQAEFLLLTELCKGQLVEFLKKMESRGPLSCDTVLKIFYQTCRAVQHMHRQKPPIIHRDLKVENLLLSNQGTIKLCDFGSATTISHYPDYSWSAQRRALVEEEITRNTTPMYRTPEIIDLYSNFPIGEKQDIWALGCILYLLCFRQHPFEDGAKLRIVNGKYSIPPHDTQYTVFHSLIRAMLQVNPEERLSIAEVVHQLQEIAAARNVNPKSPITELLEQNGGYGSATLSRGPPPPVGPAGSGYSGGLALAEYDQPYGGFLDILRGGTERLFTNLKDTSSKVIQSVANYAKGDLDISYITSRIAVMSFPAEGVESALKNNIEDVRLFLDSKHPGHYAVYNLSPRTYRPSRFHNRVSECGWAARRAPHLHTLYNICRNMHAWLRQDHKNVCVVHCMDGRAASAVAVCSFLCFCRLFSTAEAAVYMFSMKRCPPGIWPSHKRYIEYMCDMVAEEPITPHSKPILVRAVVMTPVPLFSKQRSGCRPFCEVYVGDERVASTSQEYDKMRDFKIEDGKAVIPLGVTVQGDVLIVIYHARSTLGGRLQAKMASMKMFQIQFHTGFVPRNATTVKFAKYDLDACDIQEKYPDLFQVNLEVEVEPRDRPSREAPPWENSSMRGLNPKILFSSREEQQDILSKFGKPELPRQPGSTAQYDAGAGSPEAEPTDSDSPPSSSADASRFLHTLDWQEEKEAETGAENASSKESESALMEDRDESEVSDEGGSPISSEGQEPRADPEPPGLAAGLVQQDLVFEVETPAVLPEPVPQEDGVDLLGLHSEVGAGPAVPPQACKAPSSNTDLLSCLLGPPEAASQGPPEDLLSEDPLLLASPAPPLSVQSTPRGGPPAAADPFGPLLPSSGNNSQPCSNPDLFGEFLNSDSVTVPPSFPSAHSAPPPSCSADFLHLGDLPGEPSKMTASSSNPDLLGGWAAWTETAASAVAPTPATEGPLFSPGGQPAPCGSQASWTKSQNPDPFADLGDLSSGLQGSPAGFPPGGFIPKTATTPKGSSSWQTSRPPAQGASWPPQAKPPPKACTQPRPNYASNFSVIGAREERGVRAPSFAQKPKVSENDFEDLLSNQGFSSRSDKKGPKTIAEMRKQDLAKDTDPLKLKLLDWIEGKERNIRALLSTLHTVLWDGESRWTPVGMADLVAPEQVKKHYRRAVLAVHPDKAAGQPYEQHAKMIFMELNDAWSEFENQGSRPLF
Chain of INSR (human) (P06213 whole entry, looked up): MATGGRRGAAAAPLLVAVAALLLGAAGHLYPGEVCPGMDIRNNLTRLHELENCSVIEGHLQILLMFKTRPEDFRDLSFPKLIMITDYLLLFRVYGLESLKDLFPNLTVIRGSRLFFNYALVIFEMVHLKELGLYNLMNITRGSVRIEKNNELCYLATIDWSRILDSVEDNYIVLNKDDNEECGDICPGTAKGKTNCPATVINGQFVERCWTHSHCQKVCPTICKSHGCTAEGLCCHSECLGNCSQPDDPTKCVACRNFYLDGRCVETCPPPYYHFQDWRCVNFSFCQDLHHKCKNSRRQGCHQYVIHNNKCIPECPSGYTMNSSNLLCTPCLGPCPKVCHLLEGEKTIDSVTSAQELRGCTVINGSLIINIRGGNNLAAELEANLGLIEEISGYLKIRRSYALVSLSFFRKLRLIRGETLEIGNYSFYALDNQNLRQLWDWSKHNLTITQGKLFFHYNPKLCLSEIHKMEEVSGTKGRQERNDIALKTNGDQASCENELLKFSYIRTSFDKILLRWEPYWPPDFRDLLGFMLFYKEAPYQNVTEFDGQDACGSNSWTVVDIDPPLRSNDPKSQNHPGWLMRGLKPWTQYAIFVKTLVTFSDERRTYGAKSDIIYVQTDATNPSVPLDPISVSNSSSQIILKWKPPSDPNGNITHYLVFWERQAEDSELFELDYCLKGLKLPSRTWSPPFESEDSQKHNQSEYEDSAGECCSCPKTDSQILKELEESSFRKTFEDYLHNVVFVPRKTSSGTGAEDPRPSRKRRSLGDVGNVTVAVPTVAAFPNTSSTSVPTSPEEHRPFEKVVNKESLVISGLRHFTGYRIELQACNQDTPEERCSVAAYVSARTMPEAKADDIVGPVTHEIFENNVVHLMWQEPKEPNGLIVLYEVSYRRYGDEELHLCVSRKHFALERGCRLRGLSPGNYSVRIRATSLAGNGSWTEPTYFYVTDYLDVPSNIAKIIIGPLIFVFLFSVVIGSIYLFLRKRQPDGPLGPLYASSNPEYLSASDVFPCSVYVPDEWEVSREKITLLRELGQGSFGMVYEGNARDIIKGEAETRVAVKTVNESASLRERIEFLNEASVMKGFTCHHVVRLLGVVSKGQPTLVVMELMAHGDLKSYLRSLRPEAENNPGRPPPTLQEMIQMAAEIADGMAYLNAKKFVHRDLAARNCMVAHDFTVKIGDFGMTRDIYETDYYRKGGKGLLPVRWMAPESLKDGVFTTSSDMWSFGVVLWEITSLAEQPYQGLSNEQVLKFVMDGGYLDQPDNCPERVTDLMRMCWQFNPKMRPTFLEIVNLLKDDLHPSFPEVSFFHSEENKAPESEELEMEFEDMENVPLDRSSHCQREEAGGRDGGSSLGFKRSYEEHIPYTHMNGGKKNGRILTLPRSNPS

kinase still bound, per cent of control (HIPK1 (human)): 5%
kinase still bound, per cent of control (PIM1 (human) [1]): 2.7%
kinase still bound, per cent of control (GAK (human)): 9.3%
kinase still bound, per cent of control (CSNK2A1 (human)): 4.4%
kinase still bound, per cent of control [2]: 33%
kinase still bound, per cent of control (CSNK2A2 (human)): 4.2%
kinase still bound, per cent of control (DAPK3 (human)): 25%
kinase still bound, per cent of control [3]: 5.8%
kinase still bound, per cent of control (PIK3C2B (human)): 19%
kinase still bound, per cent of control (STK17A (human)): 1.5%
kinase still bound, per cent of control (PIK3CD (human)): 27%
kinase still bound, per cent of control (PIK3CG (human)): 4%
kinase still bound, per cent of control [4]: 28%
kinase still bound, per cent of control (BMPR2 (human)): 12%
kinase still bound, per cent of control [5]: 15%
kinase still bound, per cent of control (DAPK1 (human)): 10%
kinase still bound, per cent of control (CIT (human)): 0.2%
kinase still bound, per cent of control (STK17B (human)): 3.3%
kinase still bound, per cent of control [6]: 19%
kinase still bound, per cent of control (TEK (human)): 2.1%
kinase still bound, per cent of control (DAPK2 (human)): 12%
kinase still bound, per cent of control (RPS6KA4 KD2 (human)): 22%
kinase still bound, per cent of control (MYLK4 (human)): 17%
kinase still bound, per cent of control (AAK1 (human)): 35%
kinase still bound, per cent of control (EGFR (human)): 29%
kinase still bound, per cent of control (RIPK2 (human)): 32%
kinase still bound, per cent of control [7]: 9.8%
kinase still bound, per cent of control [8]: 20%
kinase still bound, per cent of control [9]: 1.9%
kinase still bound, per cent of control (CLK2 (human)): 27%
kinase still bound, per cent of control (TAOK1 (human)): 8.4%
kinase still bound, per cent of control [10]: 14%
kinase still bound, per cent of control (MYLK3 (human)): 29%
kinase still bound, per cent of control (PIM3 (human)): 4.8%
kinase still bound, per cent of control (TIE1 (human)): 25%
kinase still bound, per cent of control (RPS6KA6 KD2 (human)): 18%
kinase still bound, per cent of control (PIM2 (human) [11]): 2%
kinase still bound, per cent of control (ACVR2B (human)): 9.9%
IC50 (PIM1 (human) [12]): 0.094 µM
IC50 (PIM2 (human) [13]): 0.158 µM
SMILES: O=C1NC(=O)/C(=C/c2ccc(-c3ccc(F)cc3O)o2)S1
kinase still bound, per cent of control (MAPK15 (human)): 3.6%

kinase still bound, per cent of control (ALK (human)): 11%
kinase still bound, per cent of control (GAK (human)): 1.4%
kinase still bound, per cent of control (PRKD1 (human)): 29%
kinase still bound, per cent of control (CSNK1E (human)): 0%
kinase still bound, per cent of control (MYLK (human)): 14%
kinase still bound, per cent of control (AKT3 (human)): 0%
kinase still bound, per cent of control (TTK (human)): 1.8%
kinase still bound, per cent of control (DAPK3 (human)): 28%
kinase still bound, per cent of control [3]: 18%
kinase still bound, per cent of control [5]: 28%
kinase still bound, per cent of control (FER (human)): 24%
kinase still bound, per cent of control (RPS6KA2 KD2 (human)): 16%
kinase still bound, per cent of control (ULK2 (human)): 2%
kinase still bound, per cent of control (PLK1 (human)): 0%
kinase still bound, per cent of control [6]: 31%
kinase still bound, per cent of control (PLK3 (human)): 12%
kinase still bound, per cent of control (DAPK2 (human)): 32%
kinase still bound, per cent of control (ROS1 (human)): 0%
kinase still bound, per cent of control (PTK2 (human)): 3.4%
kinase still bound, per cent of control (EGFR (human)): 29%
kinase still bound, per cent of control [7]: 23%
kinase still bound, per cent of control [8]: 31%
kinase still bound, per cent of control [9]: 20%
kinase still bound, per cent of control (INSR (human)): 30%
kinase still bound, per cent of control (PLK4 (human)): 9.4%
kinase still bound, per cent of control (DCLK2 (human)): 14%
kinase still bound, per cent of control (PTK2B (human)): 13%
kinase still bound, per cent of control (STK4 (human)): 0%
kinase still bound, per cent of control (STK33 (human)): 7.2%
kinase still bound, per cent of control (DMPK (human)): 0%
kinase still bound, per cent of control [10]: 24%
kinase still bound, per cent of control (INSRR (human)): 32%
kinase still bound, per cent of control (TNK1 (human)): 20%
kinase still bound, per cent of control (DCLK1 (human)): 4.2%
kinase still bound, per cent of control (RPS6KA6 KD2 (human)): 20%
kinase still bound, per cent of control (RPS6KA1 KD2 (human)): 32%
SMILES: COc1cc(N2CCN(CCO)CC2)ccc1Nc1ncc2c(n1)N(C1CCCC1)CCC(=O)N2C
